This is an account of results in patent EP0135714B1, “Sustained release compositions for biologically active materials” (MELAMINE CHEMICALS, INC., priority 1983, dated 1985).

Where two headings read alike, the source gives them in different places.

The conditions of series [1]: pH 7, cited from earlier work.
Another series has as its system Alfalfa seeds. In words: Pot test: germination of alfalfa seeds on treated soil. It counts as in vivo. The text has this: The effectiveness of these granular materials in preventing the germination of alfalfa seeds was used as an assay of the continued performance of the 2,4-D admixed with the melamine compositions. As long as significant quantities of 2,4-D are present, alfalfa seed will not germinate completely. When the alfalfa seeds receiving the treatment germinate comparably to seeds which received no treatment, the period of effectiveness of the 2,4-D has ended.
Alfalfa seeds (1 gram) were planted on the surface of sieved unsterile compost soil in 2½ in. x 2½ in. (6.3 cm x 6.3 cm) plastic pots. Each test pot stood in a plastic saucer in order to avoid contamination between pots. After introduction of the seeds, the pots were well watered from the top and covered with another plastic dish until germination was established. This avoided unnecessary drying out of the soil and maintained an intimate moist atmosphere for seed germination. All test pots were kept in a controlled temperature room at 70°F for the duration of the trial. After germination was established the covers were removed to avoid any restriction of seedling growth. Seeds and plants were monitored daily, watered evenly as necessary, and growth changes recorded.
A series of four pot treatments was set up as follows: • (a) control pots to which no chemical was applied; • (b) 2,4-D alone (applied at a rate equivalent to 22.7 kg of 2,4-D/ ha ); • (c) 2,4-D/melamine granules of Example 1 (applied at a rate equivalent to 22.7 kg of 2,4-D/ha ); and • (d) melamine granules (not containing 2,4-D) in an amount equal to that used in treatment (c).
The melamine/binder ratio was essentially the same in the granules used in treatments (c) and (d), the difference being in the presence or absence of 2,4-D. The granules were used by distributing them over the soil surfaces in the pots.
For each treatment, replicates of three pots were set up in four groups (A), (B), (C) and (D) so that alfalfa seeds could be planted on undisturbed soil for each of the following three weeks. All pots in each series were treated equally from the outset with respect to applied material, watering and light. The experiment was started when the treatments were applied to all of the pots by sprinkling the applied material on the surface of the soil, and pots (A) were planted. One week later, alfalfa seeds were planted in pots (B). Another week later, pots (C) were planted with alfalfa seeds and finally three weeks after application of the chemicals, pots (D) were planted with alfalfa seeds.
The pots in the four groups of pots A, B, C and D thus were treated at the same time, some pots receiving treatment (a): no chemical applied, to provide a control; some treatment (b): 2,4-D alone applied; and so on. […]

In another series the test system is weeds. Briefly: Pot test with Douglas-fir seedlings: weed growth on the soil surface. Format: in vivo. The text has this: (§1) The following granular herbicide formulations were used: • (a) 2,4-D 5%, melamine 71%, urea 24% • (b) 2,4-D 4.7%, melamine 88.1%, resin solids 7.2% • (c) 2,4-D/KL (a controlled release formulation of 2,4-D with kraft lignin 10%, melamine 72%, urea 18% • (d) Velpar® herbicide 5.35%, melamine 90.35%, resin solids 4.3% (V/MI) • (e) b and d, applied together • (f) control, no treatment • (g) technical 2,4-D treatment
(§2) Douglas-fir seedlings (2.0) were planted in 10" (25 cm) diameter pots. Each of the above five granule treatments was applied to three potted firs. Two control sets of potted seedlings had respectively no treatment, and an application of commercial 2,4-D, for comparison. In the application of the commercial 2,4-D, the fine powdered material was applied evenly to the soil surface, using the same 2,4-D material employed in making the granular formulations.
(§3) The 2,4-D was applied in all sets at the equivalent rate of 22.7 kg ai/ha and the Velpar® herbicide at 23.8 kg ai/ha (ai = active ingredient).
(§4) These sets were monitored for seedling height growth, growth quality of the seedling, and weed growth surrounding the seedling, represented as a % of soil surface.
There were no visible weeds present on the soil at the time of treatment. However, volunteer weed seeds were always present in the atmosphere and daily settled on the soil surface. […]

Another series relates to Douglas-fir seedlings. In words: Pot test with Douglas-fir seedlings: seedling height growth. The settings on record: Fig. 4: 24 weeks after the treatment date. It counts as in vivo.
Text: as §1, §2, §3, §4
In the drawings, Figs. 1 and 3 compare the weed growth observed following soil treatment, using the pot-planted Douglas fir seedlings. […]

Series [2] can be described thus: Rate of release from granules in dialysis tubing into a water bath. It counts as physicochemical. The settings on record: after 8-9 days. Here is the method: Each of these formulations was made up into granules that were screened to fall within the size range of 0.84 to 1.41 mm.
In order to make measurements on the amount of herbicide released from each set of granules, a sample was taken of each. The sample was placed in dialysis tubing. The tubing was submerged in a covered container of distilled water containing 10 liters of water at 22°C. The solution was agitated and 10 ml. aliquots were removed at appropriate times.
The aliquots were subjected to analyses by an ultra-violet spectrophotometer at 203, 247 and 284 nm. respectively, for determination of the contents of melamine and herbicide.

[3] abbreviates: Table II (Example 3), soil treatment applied at 0 days, 22.7 kg of 2,4-D/ha.

Consider `O=c1[nH]c(=O)[nH]c(=O)[nH]1` [Cyanuric Acid], for which the “Solubility (g/100g)” value in series [1] is reported as 0.27 g/100g.
`Nc1nc(N)nc(N)n1` [Melamine]: the “Solubility (g/100g)” value in series [1] (water at 20°C) is given as 0.50 g/100g.
As for `Nc1nc(N)nc(-c2ccccc2)n1` [Benzoguanamine], in series [1] (water, 22°C), the “Solubility (g/100g)” value is 0.06 (22°C) g/100g.
With `Nc1nc(N)nc(O)n1` [Ammeline], in series [1] (water at 20°C), the “Solubility (g/100g)” value is on record as 0.008 g/100g.
With `O=C(O)COc1ccc(Cl)cc1Cl` [2,4-D, 2,4-dichlorophenoxyacetic acid], the “mortality or aborted germination” value in the series on Alfalfa seeds (Example 3, (A) pots, planted at 0 days) was determined as 100%. Further, in the series with Alfalfa seeds (setting [3]), the “Extent of Germination (B) Pots Planted; 7 Days Later” value is 80% and the “Extent of Germination (C) Pots Planted; 14 Days Later” value is recorded as 90%. For the same molecule, the “Extent of Germination (D) Pots Planted; 21 Days Later” value in the series on Alfalfa seeds (Table II (Example 3), soil treatment applied at 0 days, 22.7 kg of 2,4-D/ha, listed as 2,4-D alone) is “germinating as well as the controls”. In addition, the “weed control (in words)” value with weeds (2,4-D 22.7 kg ai/ha, Velpar herbicide 23.8 kg ai/ha) is listed as “initially gave good weed control”. In the series on weeds (by fourteen weeks, 22.7 kg ai/ha), the “weed population occupied % of the soil surface” value is listed as roughly 90%. This molecule also showed a mean height growth with Douglas-fir seedlings of 28 cm. Also, the “height growth greater than the non-treated control” value in the series with Douglas-fir seedlings (control 20 cm) is on record as 40%. The “herbicide entered the bath” value in series [2] is on record as 100%.
As for `Nc1nc(N)nc(N)n1.O=[N+]([O-])O` [Melamine Nitrate], in series [1], the “Solubility (g/100g)” value is recorded as 0.85 g/100g.
As to `Nc1nc(O)nc(O)n1` [Ammelide], in series [1] (water at 20°C), the “Solubility (g/100g)” value is on record as “less than 0.008 g/100g”.
For Potassium Acid Sulfate, the “Solubility (g/100g)” value in series [1] is listed as 51.4 g/100g.
As for `NC(N)=O` [Urea], the “Solubility (g/100g)” value in series [1] (water, at 25°C) was 119.3 (at 25°C) g/100g.
In the case of `N#CNC(=N)N` [Dicyandiamide], the “Solubility (g/100g)” value in series [1] is 2.26 (at 13°C) g/100g.
